This assay deals with T1, Dihydrofolate reductase (Pneumocystis carinii, UniProt P16184).
T1 sequence (P16184 whole entry): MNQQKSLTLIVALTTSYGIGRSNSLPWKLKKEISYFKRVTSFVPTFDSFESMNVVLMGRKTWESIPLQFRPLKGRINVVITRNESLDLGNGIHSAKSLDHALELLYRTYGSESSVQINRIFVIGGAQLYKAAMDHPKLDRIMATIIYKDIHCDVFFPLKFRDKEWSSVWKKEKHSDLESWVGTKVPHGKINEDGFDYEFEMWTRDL

The IC50 is the concentration that gives 50% inhibition.

Description: Inhibition of Pneumocystis carinii DHFR

`Nc1nc(N)c2nc(CN3c4ccccc4CCc4ccccc43)cnc2n1`: half-maximal inhibition (IC50) was put at 210 nM.
